Test results published in patent publication US20240409585A1, “MACROCYCLIC IMMUNOMODULATORS” (priority 2021, published 2024).
Numbered stars: 1 amine (or outer) side, 2 acyl side, 3 side chain; on linkers, the order of the positions; unused ones are H or OH. Bridge positions count the residues as written; N and C are the ends. Square brackets hold non-standard residues; d marks the D form. Peptide text beside a SMILES is read from it. * marks the point of attachment. Bip(4'-COOH) = N[C@@H](Cc1ccc(-c2ccc(C(=O)O)cc2)cc1)C(=O)O; Bip(4'-NHAc) = CC(=O)Nc1ccc(-c2ccc(C[C@H](N)C(=O)O)cc2)cc1; X14 = O=C(C[C@H](N[*:1])C(=O)[*:2])NS(=O)(=O)c1ccc(F)cc1; X6 = O=C(C[C@H](N[*:1])C(=O)[*:2])NS(=O)(=O)c1ccccc1Cl; X7 = O=C(C[C@H](N[*:1])C(=O)[*:2])NS(=O)(=O)c1ccccc1F; Phe(3-CF3) = N[C@@H](Cc1cccc(C(F)(F)F)c1)C(=O)O; Ala(morpholin-4-yl) = N[C@@H](CN1CCOCC1)C(=O)O; Phe(4-CONH2) = NC(=O)c1ccc(C[C@H](N)C(=O)O)cc1; Phe(4-COOH) = N[C@@H](Cc1ccc(C(=O)O)cc1)C(=O)O; Bip = N[C@@H](Cc1ccc(-c2ccccc2)cc1)C(=O)O; Phe(3-F) = N[C@@H](Cc1cccc(F)c1)C(=O)O; Phe(3-Me) = Cc1cccc(C[C@H](N)C(=O)O)c1; Abu(3S-NH2) = C[C@H](N)[C@H](N)C(=O)O; Val(3-OH) = CC(C)(O)[C@H](N)C(=O)O; X11 = CC(N)[C@H](N[*:1])C(=O)[*:2]; Cha = N[C@@H](CC1CCCCC1)C(=O)O; Carboxymethyl = O=C(O)C*; NMeA = CN[C@@H](C)C(=O)O; Nle = CCCC[C@H](N)C(=O)O; Orn = NCCC[C@H](N)C(=O)O; Dab = NCC[C@H](N)C(=O)O

Columns and labels:
[1] = target: T1, PE-labeled human PD-L1-Ig binding to Jurkat cell line over-expressing human PD-1 (Jurkat-PD-1) (Homo sapiens, UniProt Q15116); test: Jurkat-PD-1 Cell Binding High-Content Screening Assay (CBA): Method 1; details: Jurkat-PD-1 cells, PE-labeled PD-L1-Ig; μM; read-out: CBA Method 1 μM
T1 construct: expressed in transfected cells; host or cells: Jurkat

[2] = target: T1, PE-labeled human PD-L1-Ig binding to Jurkat cell line over-expressing human PD-1 (Jurkat-PD-1); test: Jurkat-PD-1 Cell Binding High-Content Screening Assay (CBA): Method 2 (presence and absence of tween-20); details: Jurkat-PD-1 cells, PE-labeled PD-L1-Ig 20 nM; presence or absence of tween-20 not given; head μM; read-out: CBA Method 2 μM
Summary of the method: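 Compounds incubated with Jurkat cells overexpressing human PD-1 for 2 h at 37° C, tested with and without tween-20 to flag aggregation. PE-labeled human PD-L1-Ig (20 nM final) added in DMEM/10% FCS; binding read by high-content imaging.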

T1 sequence (Q15116 25-288): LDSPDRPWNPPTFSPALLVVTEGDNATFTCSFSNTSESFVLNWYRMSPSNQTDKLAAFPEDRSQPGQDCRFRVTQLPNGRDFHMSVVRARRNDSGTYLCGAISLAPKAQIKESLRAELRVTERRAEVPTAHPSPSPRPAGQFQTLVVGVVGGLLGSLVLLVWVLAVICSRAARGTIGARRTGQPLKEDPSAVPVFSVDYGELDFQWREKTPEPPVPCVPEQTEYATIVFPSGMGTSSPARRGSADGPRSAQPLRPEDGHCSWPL

Structure (SMILES) | IC50 [1] [µM] | IC50 [2] [µM]
CC(=O)Nc1ccc(-c2ccc(C[C@@H]3NC(=O)[C@H](Cc4cccc(C(F)(F)F)c4)NC(=O)[C@H](CC(=O)O)NC(=O)[C@H](Cc4ccc(C(=O)O)cc4)NC(=O)[C@H]([C@H](C)N)NC(=O)CSC[C@@H](C(=O)N[C@@H](CCN)C(N)=O)NC(=O)[C@H](CCCN)NC(=O)[C@H](C(C)C)NC(=O)[C@H](CC4CCCCC4)NC(=O)[C@H](CCN)NC(=O)[C@@H](CC(C)C)NC(=O)[C@H](C)N(C)C(=O)[C@H](CCC(N)=O)NC(=O)[C@H](Cc4ccc(-c5ccccc5)cc4)NC3=O)cc2)cc1 [Example 5050] ({CH2CO}-[Abu(3S-NH2)][Phe(4-COOH)]D[Phe(3-CF3)][Bip(4'-NHAc)][Bip]Q[NMeA][dL][Dab][Cha]V[Orn]C[Dab]-NH2; thioether N-14) | 0.0065 | 0.0059
CC(=O)Nc1ccc(-c2ccc(C[C@@H]3NC(=O)[C@H](Cc4cccc(C)c4)NC(=O)[C@H](CC(=O)O)NC(=O)[C@H](Cc4ccc(C(=O)O)cc4)NC(=O)[C@H]([C@H](C)N)NC(=O)CSC[C@@H](C(=O)N[C@@H](CCN)C(N)=O)NC(=O)[C@H](CCCN)NC(=O)[C@H](C(C)C)NC(=O)[C@H](Cc4cccc(F)c4)NC(=O)[C@H](CCN)NC(=O)[C@@H](CC(C)C)NC(=O)[C@H](C)N(C)C(=O)[C@H](CCC(N)=O)NC(=O)[C@H](Cc4ccc(-c5ccccc5)cc4)NC3=O)cc2)cc1 [Example 5052] ({CH2CO}-[Abu(3S-NH2)][Phe(4-COOH)]D[Phe(3-Me)][Bip(4'-NHAc)][Bip]Q[NMeA][dL][Dab][Phe(3-F)]V[Orn]C[Dab]-NH2; thioether N-14) | 0.0081 | 0.0084
CC(C)C[C@H]1NC(=O)[C@H](C)N(C)C(=O)[C@H](CCC(N)=O)NC(=O)[C@H](Cc2ccc(-c3ccccc3)cc2)NC(=O)[C@H](Cc2ccc(C(=O)O)cc2)NC(=O)[C@H](Cc2cccc(C(F)(F)F)c2)NC(=O)[C@H](CC(=O)NS(=O)(=O)c2ccccc2F)NC(=O)[C@H](Cc2ccc(C(=O)O)cc2)NC(=O)[C@H](CN2CCOCC2)NC(=O)CSC[C@@H](C(=O)N[C@@H](CCN)C(N)=O)NC(=O)[C@H](CCCN)NC(=O)[C@H](C(C)C)NC(=O)[C@H](CC2CCCCC2)NC(=O)[C@H](CCN)NC1=O [Example 5077] ({CH2CO}-[Ala(morpholin-4-yl)][Phe(4-COOH)][X7][Phe(3-CF3)][Phe(4-COOH)][Bip]Q[NMeA][dL][Dab][Cha]V[Orn]C[Dab]-NH2; thioether N-14) | 0.345 | 0.338
Cc1cccc(C[C@@H]2NC(=O)[C@H](CC(=O)O)NC(=O)[C@H](Cc3ccc(C(=O)O)cc3)NC(=O)[C@H](CC(C)C)NC(=O)CSC[C@@H](C(=O)N[C@@H](CCN)C(N)=O)NC(=O)[C@H](CCCN)NC(=O)[C@H](C(C)C)NC(=O)[C@H](Cc3cccc(F)c3)NC(=O)[C@H](CCN)NC(=O)[C@@H](CC(C)C)NC(=O)[C@H](C)N(C)C(=O)[C@H](CCC(N)=O)NC(=O)[C@H](Cc3ccc(-c4ccccc4)cc3)NC(=O)[C@H](Cc3ccc(-c4ccc(C(=O)O)cc4)cc3)NC2=O)c1 [Example 5064] ({CH2CO}-L[Phe(4-COOH)]D[Phe(3-Me)][Bip(4'-COOH)][Bip]Q[NMeA][dL][Dab][Phe(3-F)]V[Orn]C[Dab]-NH2; thioether N-14) | 0.0544 | 0.0348
CC(C)C[C@H]1NC(=O)[C@H](C)N(C)C(=O)[C@H](CCC(N)=O)NC(=O)[C@H](Cc2ccc(-c3ccccc3)cc2)NC(=O)[C@H](Cc2ccc(C(=O)O)cc2)NC(=O)[C@H](Cc2cccc(C(F)(F)F)c2)NC(=O)[C@H](CC(=O)NS(=O)(=O)c2ccccc2Cl)NC(=O)[C@H](Cc2ccc(C(=O)O)cc2)NC(=O)[C@H](CN2CCOCC2)NC(=O)CSC[C@@H](C(=O)N[C@@H](CCN)C(N)=O)NC(=O)[C@H](CCCN)NC(=O)[C@H](C(C)C)NC(=O)[C@H](CC2CCCCC2)NC(=O)[C@H](CCN)NC1=O [Example 5080] ({CH2CO}-[Ala(morpholin-4-yl)][Phe(4-COOH)][X6][Phe(3-CF3)][Phe(4-COOH)][Bip]Q[NMeA][dL][Dab][Cha]V[Orn]C[Dab]-NH2; thioether N-14) | 0.224 | 0.332
CCCC[C@@H]1NC(=O)CSC[C@@H](C(=O)N[C@@H](CCN)C(N)=O)NC(=O)[C@H](CCC(=O)O)NC(=O)[C@H](C(C)C)NC(=O)[C@H](CC2CCCCC2)NC(=O)[C@H](CCN)NC(=O)[C@@H](CC(C)C)NC(=O)[C@H](C)N(C)C(=O)[C@H](CCCN)NC(=O)[C@H](Cc2ccc(-c3ccccc3)cc2)NC(=O)[C@H](Cc2ccc(-c3ccc(C(=O)O)cc3)cc2)NC(=O)[C@H](Cc2cccc(C(F)(F)F)c2)NC(=O)[C@H](CC(=O)O)NC(=O)[C@H](Cc2ccc(-c3ccc(C(=O)O)cc3)cc2)NC1=O [Example 5089] ({CH2CO}-[Nle][Bip(4'-COOH)]D[Phe(3-CF3)][Bip(4'-COOH)][Bip][Orn][NMeA][dL][Dab][Cha]VEC[Dab]-NH2; thioether N-14) | 0.01 | 0.11
Cc1cccc(C[C@@H]2NC(=O)[C@H](CC(=O)O)NC(=O)[C@H](Cc3ccc(OCC(=O)O)cc3)NC(=O)[C@H](CN3CCOCC3)NC(=O)CSC[C@@H](C(=O)N[C@@H](CCN)C(N)=O)NC(=O)[C@H](CCCN)NC(=O)[C@H](C(C)C)NC(=O)[C@H](CC3CCCCC3)NC(=O)[C@H](CCN)NC(=O)[C@@H](CC(C)C)NC(=O)[C@H](C)N(C)C(=O)[C@H](Cc3ccc(C(=O)O)cc3)NC(=O)[C@H](Cc3ccc(-c4ccccc4)cc3)NC(=O)[C@H](Cc3ccc(C(=O)O)cc3)NC2=O)c1 [Example 5045] ({CH2CO}-[Ala(morpholin-4-yl)]Y(Carboxymethyl)D[Phe(3-Me)][Phe(4-COOH)][Bip][Phe(4-COOH)][NMeA][dL][Dab][Cha]V[Orn]C[Dab]-NH2; thioether N-14) | 0.0016 | 0.0014
CC(C)C[C@@H]1NC(=O)[C@H](Cc2c[nH]c3ccccc23)NC(=O)[C@H](CC(N)=O)NC(=O)[C@H](Cc2ccc(O)cc2)NC(=O)[C@H](Cc2ccccc2)NC(=O)CSC[C@@H](C(=O)NCC(N)=O)NC(=O)[C@H](CO)NC(=O)[C@H](C(C)C)NC(=O)[C@H](CC(C)C)NC(=O)[C@H](CC(N)=O)NC(=O)[C@@H](CC(C)C)NC(=O)[C@H](C)N(C)C(=O)[C@H](C(C)C)NC(=O)[C@H](Cc2ccc(-c3ccccc3)cc2)NC1=O [Example 5025] ({CH2CO}-FYNWL[Bip]V[NMeA][dL]NLVSCG-NH2; thioether N-14) | 0.31 | 0.56
Cc1cccc(C[C@@H]2NC(=O)[C@H](CC(=O)O)NC(=O)[C@H](Cc3ccc(OCC(=O)O)cc3)NC(=O)[C@H](C(C)N)NC(=O)CSC[C@@H](C(=O)N[C@@H](CCN)C(N)=O)NC(=O)[C@H](CO)NC(=O)[C@H](C(C)(C)O)NC(=O)[C@H](CC3CCCCC3)NC(=O)[C@H](CCN)NC(=O)[C@@H](CC(C)C)NC(=O)[C@H](C)N(C)C(=O)[C@H](Cc3ccc(C(N)=O)cc3)NC(=O)[C@H](Cc3ccc(-c4ccccc4)cc3)NC(=O)[C@H](Cc3ccc(OCC(=O)O)cc3)NC2=O)c1 (stereo partly drawn) [Example 5066] ({CH2CO}-[X11]Y(Carboxymethyl)D[Phe(3-Me)]Y(Carboxymethyl)[Bip][Phe(4-CONH2)][NMeA][dL][Dab][Cha][Val(3-OH)]SC[Dab]-NH2; thioether N-14) | 0.0304 | 0.0028
CC(C)C[C@H]1NC(=O)[C@H](C)N(C)C(=O)[C@H](CCCN)NC(=O)[C@H](Cc2ccc(-c3ccccc3)cc2)NC(=O)[C@H](Cc2ccc(-c3ccc(C(=O)O)cc3)cc2)NC(=O)[C@H](Cc2cccc(C(F)(F)F)c2)NC(=O)[C@H](CC(=O)O)NC(=O)[C@H](Cc2ccc(-c3ccc(C(=O)O)cc3)cc2)NC(=O)[C@H](Cc2ccc(OCC(=O)O)cc2)NC(=O)CSC[C@@H](C(=O)N[C@@H](CCN)C(N)=O)NC(=O)[C@H](CCCN)NC(=O)[C@H](C(C)C)NC(=O)[C@H](CC2CCCCC2)NC(=O)[C@H](CCN)NC1=O [Example 5087] ({CH2CO}-Y(Carboxymethyl)[Bip(4'-COOH)]D[Phe(3-CF3)][Bip(4'-COOH)][Bip][Orn][NMeA][dL][Dab][Cha]V[Orn]C[Dab]-NH2; thioether N-14) | 0.03 | 0.11
CC(=O)Nc1ccc(-c2ccc(C[C@@H]3NC(=O)[C@H](Cc4cccc(C)c4)NC(=O)[C@H](CC(=O)O)NC(=O)[C@H](Cc4ccc(C(=O)O)cc4)NC(=O)[C@H](CC(C)C)NC(=O)CSC[C@@H](C(=O)N[C@@H](CCN)C(N)=O)NC(=O)[C@H](CCCN)NC(=O)[C@H](C(C)C)NC(=O)[C@H](CC4CCCCC4)NC(=O)[C@H](CCN)NC(=O)[C@@H](CC(C)C)NC(=O)[C@H](C)N(C)C(=O)[C@H](CCC(N)=O)NC(=O)[C@H](Cc4ccc(-c5ccccc5)cc4)NC3=O)cc2)cc1 [Example 5054] ({CH2CO}-L[Phe(4-COOH)]D[Phe(3-Me)][Bip(4'-NHAc)][Bip]Q[NMeA][dL][Dab][Cha]V[Orn]C[Dab]-NH2; thioether N-14) | 0.0053 | 0.0057
CC(C)C[C@H]1NC(=O)[C@H](C)N(C)C(=O)[C@H](CCC(N)=O)NC(=O)[C@H](Cc2ccc(-c3ccccc3)cc2)NC(=O)[C@H](Cc2ccc(C(=O)O)cc2)NC(=O)[C@H](Cc2cccc(C(F)(F)F)c2)NC(=O)[C@H](CC(=O)NS(=O)(=O)c2ccc(F)cc2)NC(=O)[C@H](Cc2ccc(C(=O)O)cc2)NC(=O)[C@H](CN2CCOCC2)NC(=O)CSC[C@@H](C(=O)N[C@@H](CCN)C(N)=O)NC(=O)[C@H](CCCN)NC(=O)[C@H](C(C)C)NC(=O)[C@H](CC2CCCCC2)NC(=O)[C@H](CCN)NC1=O [Example 5079] ({CH2CO}-[Ala(morpholin-4-yl)][Phe(4-COOH)][X14][Phe(3-CF3)][Phe(4-COOH)][Bip]Q[NMeA][dL][Dab][Cha]V[Orn]C[Dab]-NH2; thioether N-14) | 0.138 | 0.229
